Reference: PMC11040665, “Aminothiazolone Inhibitors Disrupt the Protein–RNA Interaction of METTL16 and Modulate the m^6A RNA Modification” (JACS Au, 2024)

Legend:
METTL16 MTD (1-291) = target: T1, METTL16 MTD (1-291) (Homo sapiens, UniProt Q86W50); assay: Isothermal titration calorimetry (ITC); type: binding; conditions: 700 μM METTL16 (1-291) titrated into 50 μM compound, 25 °C
T1 construct: METTL16 MTD (1–291) was subcloned to pOPINB plasmid; His tag followed by HRV 3C cleavage site (N, cleaved yes); made in house; host or cells: E. coli Rosetta (DE3)
T1 sequence (Q86W50 1-291): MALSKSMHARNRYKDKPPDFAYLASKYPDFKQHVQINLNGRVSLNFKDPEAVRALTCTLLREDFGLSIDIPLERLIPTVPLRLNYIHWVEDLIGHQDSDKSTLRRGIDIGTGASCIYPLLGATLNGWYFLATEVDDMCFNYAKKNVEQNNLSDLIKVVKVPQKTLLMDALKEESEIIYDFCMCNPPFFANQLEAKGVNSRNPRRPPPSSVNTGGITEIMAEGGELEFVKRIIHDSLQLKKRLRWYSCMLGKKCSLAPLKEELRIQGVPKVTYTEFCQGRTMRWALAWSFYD
Description: ITC was performed by using the MicroCal PEAQ-ITC system (Malvern) at 25 °C. METTL16 MTD protein was directly used after purification. 700 μM protein in SEC buffer (20 mM pH 7.5, 200 mM NaCl, 0.5 mM TCEP,2% v/v glycerol) supplemented with 0.5% DMSO were loaded to the syringe, 50 μM compound in SEC buffer (final 0.5%DMSO) was loaded to the cell, both samples were adjusted to 25 °C and degassed before loading. The experiment was carried out using the reference power of 10, with 19 injections. Data were analyzed using the MicroCal PEAQ-ITC Analysis Software.
Figure S5. Compound Ia as a negative control for DSF assay ,T m values of tested compounds and ITC result of […]
47. […] Data are shown as mean ± SEM, n=4. (B) EMSA assay result of compound Ia. (C) Melting curve of METTL16 in the DSF assay treated with different concentrations of Ia. Data are shown as mean ± SD, n=2. (D) T m values of DMSO control and compound Ia, 27,45,46, and 47, assay was conducted with two biological repeats in duplicate. Data are shown as mean ± SEM, n=4. (E) ITC validation of compound 47, using 700 μM METTL16 (1-291) protein to titrate 50 μM compound 47.
(1 picture or pasted object on this page, not shown here)

His-tagged METTL16 MTD = target: T2, His-tagged METTL16 MTD (Homo sapiens, UniProt Q86W50); assay: switchSENSE biosensor assay; type: binding; conditions: potassium salt of compound 45 was used
T2 construct: His-tagged METTL16 (1–291) was purified using the same protocol, without protease cleavage; made in house; host or cells: E. coli Rosetta (DE3)
T2 sequence (Q86W50 1-291): T1 sequence (Q86W50 1-291)
Description: The biosensor assay was performed using a heliX instrument (Dynamic Biosensors) with a heliX adapter chip. The His-capture kit (HK-NTA-1) was used to functionalize and regenerate the chip. 100 nM His-tagged METTL16 MTD was captured to the surface and regenerated with imidazole solution (250 mM in 10 mM Tris, pH 7.4, 140 mM NaCl, 0.05% Tween 20, 50 μM EDTA, 50 μM EGTA) each time after measurement. PE140 buffer was used as the running buffer (10 mM Na2HPO4/NaH2PO4, pH 7.4, 140 mM NaCl, 0.05% Tween 20, 50 μM EDTA) and 0.2% DMSO was used as concertation 0. The association and dissociation flow rates were 200 μL/min, with an association time of 90 s and a dissociation time of 120 s. Data were analyzed using heliOS using the ‘kinetics mono- & biphasic-free amplitudes fitting’ mode.

METTL16 MTD = target: T3, METTL16 MTD (Homo sapiens, UniProt Q86W50); assay: Michaelis–Menten kinetics study, in vitro methylation assay at different SAM concentrations; type: biochemical; conditions: SAM from 75 µM, two-fold dilution
T3 construct: METTL16 MTD (1–291) was subcloned to pOPINB plasmid; His tag followed by HRV 3C cleavage site (N, cleaved yes); made in house; host or cells: E. coli Rosetta (DE3)
T3 sequence (Q86W50 1-291): T1 sequence (Q86W50 1-291)

[1] = tested on: MAT2A mRNA splicing in MDA-MB-231 cells; assay: MAT2A splicing by RT-qPCR, MDA-MB-231; type: cell-based, human; conditions: 50 μM, 24 h, 45 potassium salt used
Description: (§1) MDA-MB-231 cells and A549 cells were seeded into 6-well plates at 70% confluency and cultured overnight. Afterward they were treated with compound 45 potassium salt for 24 h. After the compound treatment, the cell culture medium was discarded and cells were washed with DPBS three times. The total RNA was then purified using RNeasy Mini Kit (Qiagen 74106) following the manufacturer’s protocol.
(§2) The reverse transcription was performed by using High-Capacity cDNA Reverse Transcription Kits (Thermo Fisher 4368814) with 500 ng of total RNA. qPCR was performed using PowerUp SYBR Green Master Mix (Thermo Fisher, A25742) with a 10 μL volume. The cycling was performed using Bio-Rad CFX96 Real-Time PCR Detection System following the standard cycling mode (primer Tm ≥ 60 °C) on the manufacturer’s protocol. The p value was calculated using GraphPad Prism software’s one-way ANOVA analysis.

[2] = tested on: total m^6A level in MDA-MB-231 cells; assay: Total RNA m6A level by dot blot, MDA-MB-231; type: cell-based, human; conditions: 50 μM, 24 h, 45 potassium salt used
Description: as §1
(§3) Concentrations of the total RNA were measured by NanoDrop and each sample was calibrated to the same concentration using RNase-free water. RNA samples were heated at 95 °C for 3 min and immediately chilled on ice to disrupt the secondary structures. The total RNA (1 μg) was dropped onto a positively charged nylon membrane (Invitrogen, AM10102). The membrane with RNA side up was immediately transferred to the UVP Cross-linker (Analytik Jena) with […] bulb and cross-linked under the UV light for 5 min two times, then the membrane was washed in TBST (1xTBS with 0.1% Tween 20) for 10 min at room temperature and blocked with 5% skimmed milk in TBST for 1 h at room temperature. The membrane was incubated with the anti-m^6A antibody (Synaptic systems 202003, 1 μg/mL) overnight at 4 °C. […] The membrane was further washed with TBST and detected with the Amersham ECL Prime Western Blotting Detection Reagent. […]

[3] = tested on: total RNA m^6A level in A549 cells; assay: Total RNA m6A level by dot blot, A549; type: cell-based, human; conditions: 50 μM, 24 h, 45 potassium salt used
Description: as §1, §3

[4] = tested on: MAT2A mRNA splicing in A549 cells; assay: MAT2A splicing by RT-qPCR, A549; type: cell-based, human; conditions: 50 μM, 24 h, 45 potassium salt used
Description: as §1, §2
Figure S10. Cellular evaluation of selected METTL16 inhibitors. (A)Suppression on cell viability in A549 cells.
Data are shown as mean ± SEM, n=3. (B) Suppression on cell viability in HCT116 cells. Data are shown as mean ± SEM, n=3. (C) Spliced MAT2A in A549 cells increased after treated 24 h with indicated dose of 45. Data are shown as mean ± SEM, n=4. **P<0.01, ns P>0.05. (D) Total RNA m 6A level in A549 cells after treated 24 h with 45. 45 potassium salt was used for MAT2A splicing and total RNA m 6A level evaluation. […]

| SMILES | Kd (METTL16 MTD (1-291)) | KA, biosensor assay (His-tagged METTL16 MTD) | Kd (His-tagged METTL16 MTD) | inhibition mode with SAM (Michaelis–Menten kinetics) (METTL16 MTD) | MAT2A splicing, in words [1] | total m^6A RNA level, in words [2] | total m^6A RNA level, in words [3] | MAT2A splicing, in words [4] |
| --- | --- | --- | --- | --- | --- | --- | --- | --- |
| O=C1N=C(NS(=O)(=O)c2ccc(C(=O)O)cc2)SC1=C1C(=O)Nc2ccc(Br)cc21 [Compound 47] | 5120 nM | 5.67 ± 0.48E+5 M^-1 | 1760 nM | noncompetitive inhibition mode with SAM |  |  |  |  |
| CN1C(=O)C(=C2SC(NS(=O)(=O)c3ccc(C(=O)O)cc3)=NC2=O)c2cc(Br)ccc21 [Compound 45] |  | 7.43 ± 0.84E+5 M^-1 | 1350 nM |  | promoted MAT2A splicing | increased the total m^6A mRNA levels | increased the total m^6A mRNA levels | promoted MAT2A splicing |
